Drawing on ChEMBL document CHEMBL1143467, “Synthesis of potent and selective serotonin 5-HT1B receptor ligands” (Bioorg Med Chem Lett, 2005), this text covers Ki for one molecule.

Molecules are shown by their SMILES.

Test [1] concerns the target T1, Muscarinic acetylcholine receptor M1 (Homo sapiens, UniProt P11229).
T1 sequence (P11229 whole entry): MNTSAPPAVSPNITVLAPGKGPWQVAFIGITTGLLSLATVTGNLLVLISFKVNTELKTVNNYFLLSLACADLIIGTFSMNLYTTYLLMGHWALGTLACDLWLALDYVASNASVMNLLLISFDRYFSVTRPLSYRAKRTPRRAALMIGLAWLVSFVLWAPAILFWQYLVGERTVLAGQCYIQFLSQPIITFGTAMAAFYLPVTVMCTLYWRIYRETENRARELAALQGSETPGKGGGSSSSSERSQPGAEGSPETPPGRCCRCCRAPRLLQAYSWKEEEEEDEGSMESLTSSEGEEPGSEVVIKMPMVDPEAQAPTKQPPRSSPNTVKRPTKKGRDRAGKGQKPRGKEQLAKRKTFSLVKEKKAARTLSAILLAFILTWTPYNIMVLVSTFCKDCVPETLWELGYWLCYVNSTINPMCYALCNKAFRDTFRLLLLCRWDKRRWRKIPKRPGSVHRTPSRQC
In words: Affinity towards cloned Muscarinic acetylcholine receptor M1.

The target in test [2] is T2, Muscarinic acetylcholine receptor M2 (Homo sapiens, UniProt P08172).
T2 sequence (P08172 whole entry): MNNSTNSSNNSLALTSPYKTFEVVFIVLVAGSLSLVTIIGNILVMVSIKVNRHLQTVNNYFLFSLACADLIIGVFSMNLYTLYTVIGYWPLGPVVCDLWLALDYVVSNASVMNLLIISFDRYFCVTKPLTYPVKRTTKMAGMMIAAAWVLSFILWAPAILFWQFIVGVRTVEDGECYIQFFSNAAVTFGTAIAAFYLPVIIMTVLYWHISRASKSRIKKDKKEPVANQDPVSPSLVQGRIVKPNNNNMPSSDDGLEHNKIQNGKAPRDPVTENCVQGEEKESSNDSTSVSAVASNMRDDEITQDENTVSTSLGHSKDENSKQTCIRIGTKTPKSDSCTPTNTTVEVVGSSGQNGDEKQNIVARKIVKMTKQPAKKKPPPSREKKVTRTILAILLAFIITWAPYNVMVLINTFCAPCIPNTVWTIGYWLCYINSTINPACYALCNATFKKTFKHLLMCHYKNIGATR
In words: Affinity towards cloned Muscarinic acetylcholine receptor M2.

The target in test [3] is Muscarinic acetylcholine receptor M3 (Homo sapiens, UniProt P20309). The test can be described thus: Affinity towards cloned Muscarinic acetylcholine receptor M3.
Test [4] concerns the target T3, Muscarinic acetylcholine receptor M4 (Homo sapiens, UniProt P08173).
T3 sequence (P08173 whole entry): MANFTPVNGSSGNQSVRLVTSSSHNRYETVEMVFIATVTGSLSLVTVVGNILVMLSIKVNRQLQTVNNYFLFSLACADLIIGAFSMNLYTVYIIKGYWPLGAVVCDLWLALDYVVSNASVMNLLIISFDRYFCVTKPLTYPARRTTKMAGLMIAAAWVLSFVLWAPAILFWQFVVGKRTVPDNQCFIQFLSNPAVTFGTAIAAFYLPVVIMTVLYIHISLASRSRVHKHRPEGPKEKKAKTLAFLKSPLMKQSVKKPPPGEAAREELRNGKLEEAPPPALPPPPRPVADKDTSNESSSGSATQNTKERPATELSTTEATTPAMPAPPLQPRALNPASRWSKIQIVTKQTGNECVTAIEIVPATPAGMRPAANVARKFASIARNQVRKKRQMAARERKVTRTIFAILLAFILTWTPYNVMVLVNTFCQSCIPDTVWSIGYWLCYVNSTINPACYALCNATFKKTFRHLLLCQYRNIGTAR
The test can be described thus: Affinity towards cloned Muscarinic acetylcholine receptor M4.

In test [5] the target is T4, Muscarinic acetylcholine receptor M5 (Homo sapiens, UniProt P08912).
T4 sequence (P08912 whole entry): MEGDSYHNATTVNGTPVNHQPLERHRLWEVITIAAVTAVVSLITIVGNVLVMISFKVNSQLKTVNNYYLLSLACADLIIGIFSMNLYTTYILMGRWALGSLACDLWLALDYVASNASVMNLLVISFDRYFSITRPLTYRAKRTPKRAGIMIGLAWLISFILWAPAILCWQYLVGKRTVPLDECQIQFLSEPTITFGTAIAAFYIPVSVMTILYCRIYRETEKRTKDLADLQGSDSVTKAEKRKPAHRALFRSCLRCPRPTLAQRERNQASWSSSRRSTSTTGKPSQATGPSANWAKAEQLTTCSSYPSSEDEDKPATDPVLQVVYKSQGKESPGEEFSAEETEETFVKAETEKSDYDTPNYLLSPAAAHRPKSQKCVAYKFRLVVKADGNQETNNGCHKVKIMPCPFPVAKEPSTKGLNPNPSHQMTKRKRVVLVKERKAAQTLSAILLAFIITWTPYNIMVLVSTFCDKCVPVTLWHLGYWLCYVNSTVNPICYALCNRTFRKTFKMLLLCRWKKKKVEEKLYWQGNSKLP
The test can be described thus: Affinity towards cloned Muscarinic acetylcholine receptor M5.

Test [6] has as its target 5-hydroxytryptamine receptor 1D (Homo sapiens, UniProt P28221). The test can be described thus: In vitro binding affinity towards cloned human 5-HT1D receptor using [3H]5-carboximidotryptamine as radioligand.
Test [7] has as its target 5-hydroxytryptamine receptor 2A (Homo sapiens, UniProt P28223). The test can be described thus: In vitro binding affinity towards cloned human 5-HT2A receptor using [3H]5-carboximidotryptamine as radioligand.
In test [8] the target is T5, 5-hydroxytryptamine receptor 2C (Homo sapiens, UniProt P28335).
T5 sequence (P28335 whole entry): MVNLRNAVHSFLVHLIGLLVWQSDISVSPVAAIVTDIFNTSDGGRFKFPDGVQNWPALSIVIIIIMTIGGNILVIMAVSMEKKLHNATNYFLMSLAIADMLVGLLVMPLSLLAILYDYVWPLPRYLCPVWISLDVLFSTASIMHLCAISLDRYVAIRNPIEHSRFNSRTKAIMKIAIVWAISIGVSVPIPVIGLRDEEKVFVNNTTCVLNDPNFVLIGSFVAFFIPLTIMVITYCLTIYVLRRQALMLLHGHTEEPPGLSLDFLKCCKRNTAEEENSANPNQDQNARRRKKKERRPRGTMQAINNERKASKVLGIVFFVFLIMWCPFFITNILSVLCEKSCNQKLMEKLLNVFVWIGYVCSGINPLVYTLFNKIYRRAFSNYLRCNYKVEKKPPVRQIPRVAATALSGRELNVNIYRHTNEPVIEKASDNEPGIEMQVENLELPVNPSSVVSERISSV
In words: In vitro binding affinity towards cloned human 5-HT2C receptor using [3H]5-carboximidotryptamine as radioligand.

The target in test [9] is D(1A) dopamine receptor (Homo sapiens, UniProt P21728). In words: Affinity towards cloned Dopamine receptor D1.
Test [10] deals with D(2) dopamine receptor (Homo sapiens, UniProt P14416). In words: Affinity towards cloned Dopamine receptor D2.
Test [11] addresses D(3) dopamine receptor (Homo sapiens, UniProt P35462). In words: Affinity towards cloned Dopamine receptor D3.
The target of test [12] is T6, D(4) dopamine receptor (Homo sapiens, UniProt P21917).
T6 sequence (P21917 whole entry): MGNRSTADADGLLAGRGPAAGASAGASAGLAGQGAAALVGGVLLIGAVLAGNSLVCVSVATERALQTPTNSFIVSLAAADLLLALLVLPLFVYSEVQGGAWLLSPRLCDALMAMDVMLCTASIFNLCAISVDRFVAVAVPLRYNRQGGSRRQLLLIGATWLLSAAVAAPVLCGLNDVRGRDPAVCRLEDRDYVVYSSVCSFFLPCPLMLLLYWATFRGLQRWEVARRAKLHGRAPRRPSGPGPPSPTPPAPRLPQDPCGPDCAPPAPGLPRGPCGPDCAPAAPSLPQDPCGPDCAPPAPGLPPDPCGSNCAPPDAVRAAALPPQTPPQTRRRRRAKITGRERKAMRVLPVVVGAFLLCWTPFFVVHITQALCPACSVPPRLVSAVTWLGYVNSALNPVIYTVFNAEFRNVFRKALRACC
In words: Affinity towards cloned Dopamine receptor D4.

Test [13] has as its target D(1B) dopamine receptor (Homo sapiens, UniProt P21918). The test can be described thus: Affinity towards cloned Dopamine receptor D5.
Test [14] addresses Mu-type opioid receptor (Homo sapiens, UniProt P35372). The test can be described thus: Affinity towards cloned Opioid receptor mu 1.
Test [15] addresses Histamine H1 receptor (Homo sapiens, UniProt P35367). The test can be described thus: Affinity towards cloned Histamine H1 receptor.
Test [16] deals with Delta-type opioid receptor (Homo sapiens, UniProt P41143). In words: Affinity towards cloned Opioid receptor delta 1.
Test [17] addresses Kappa-type opioid receptor (Homo sapiens, UniProt P41145). The test can be described thus: Affinity towards cloned Opioid receptor kappa 1.
Test [18] can be described thus: Affinity towards cloned Nicotinic acetylcholine receptor.
The target of test [19] is 5-hydroxytryptamine receptor 6 (Homo sapiens, UniProt P50406). The test can be described thus: In vitro binding affinity towards cloned human 5-HT6 receptor using [3H]5-carboximidotryptamine as radioligand.
The target of test [20] is 5-hydroxytryptamine receptor 7 (Homo sapiens, UniProt P34969). In words: In vitro binding affinity towards cloned human 5-HT7 receptor using [3H]5-carboximidotryptamine as radioligand.
Test [21] concerns the target 5-hydroxytryptamine receptor 1B (Homo sapiens, UniProt P28222). In words: In vitro binding affinity towards cloned human 5-HT1B receptor using [3H]5-carboximidotryptamine as radioligand.

In general, Ki refers to a measure of affinity in units of concentration, obtained from inhibition or displacement. Read a high Ki as weaker binding.

Kappa-type opioid receptor, sequence (P41145 whole entry): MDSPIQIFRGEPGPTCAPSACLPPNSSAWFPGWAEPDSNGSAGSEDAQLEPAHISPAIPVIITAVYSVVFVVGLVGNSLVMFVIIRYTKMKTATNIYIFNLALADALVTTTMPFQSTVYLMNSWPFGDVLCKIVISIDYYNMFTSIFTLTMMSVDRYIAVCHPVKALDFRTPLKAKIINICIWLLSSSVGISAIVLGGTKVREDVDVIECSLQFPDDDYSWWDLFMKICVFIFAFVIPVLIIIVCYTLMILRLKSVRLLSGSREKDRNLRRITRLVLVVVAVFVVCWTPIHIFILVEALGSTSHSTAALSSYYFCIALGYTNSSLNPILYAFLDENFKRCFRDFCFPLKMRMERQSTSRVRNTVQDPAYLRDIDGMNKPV
Histamine H1 receptor, sequence (P35367 whole entry): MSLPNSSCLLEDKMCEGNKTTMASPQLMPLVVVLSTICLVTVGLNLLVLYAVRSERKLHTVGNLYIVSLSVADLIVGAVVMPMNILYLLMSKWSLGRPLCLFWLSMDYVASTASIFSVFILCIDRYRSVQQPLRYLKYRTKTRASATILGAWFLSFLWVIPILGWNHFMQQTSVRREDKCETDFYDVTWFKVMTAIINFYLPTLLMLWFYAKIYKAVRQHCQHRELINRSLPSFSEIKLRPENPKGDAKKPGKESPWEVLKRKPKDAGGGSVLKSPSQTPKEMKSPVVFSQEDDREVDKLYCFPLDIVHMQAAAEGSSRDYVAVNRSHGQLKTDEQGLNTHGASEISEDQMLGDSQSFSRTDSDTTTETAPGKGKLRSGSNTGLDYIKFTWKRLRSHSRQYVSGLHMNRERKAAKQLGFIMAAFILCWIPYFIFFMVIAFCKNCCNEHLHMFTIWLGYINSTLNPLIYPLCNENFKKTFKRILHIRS
D(1B) dopamine receptor, sequence (P21918 whole entry): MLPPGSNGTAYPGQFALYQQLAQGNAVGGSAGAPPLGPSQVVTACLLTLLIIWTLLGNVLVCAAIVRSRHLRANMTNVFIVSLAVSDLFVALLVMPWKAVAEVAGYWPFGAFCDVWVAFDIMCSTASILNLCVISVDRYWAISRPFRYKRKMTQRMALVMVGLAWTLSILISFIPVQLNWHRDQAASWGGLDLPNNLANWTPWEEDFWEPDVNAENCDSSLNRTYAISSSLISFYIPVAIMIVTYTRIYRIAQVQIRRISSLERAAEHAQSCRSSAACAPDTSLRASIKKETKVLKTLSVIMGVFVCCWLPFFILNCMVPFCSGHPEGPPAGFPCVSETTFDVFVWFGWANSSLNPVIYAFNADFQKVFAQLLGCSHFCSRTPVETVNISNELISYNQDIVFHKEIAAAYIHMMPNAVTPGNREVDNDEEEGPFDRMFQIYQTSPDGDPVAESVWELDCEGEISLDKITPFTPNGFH
Mu-type opioid receptor, sequence (P35372 whole entry): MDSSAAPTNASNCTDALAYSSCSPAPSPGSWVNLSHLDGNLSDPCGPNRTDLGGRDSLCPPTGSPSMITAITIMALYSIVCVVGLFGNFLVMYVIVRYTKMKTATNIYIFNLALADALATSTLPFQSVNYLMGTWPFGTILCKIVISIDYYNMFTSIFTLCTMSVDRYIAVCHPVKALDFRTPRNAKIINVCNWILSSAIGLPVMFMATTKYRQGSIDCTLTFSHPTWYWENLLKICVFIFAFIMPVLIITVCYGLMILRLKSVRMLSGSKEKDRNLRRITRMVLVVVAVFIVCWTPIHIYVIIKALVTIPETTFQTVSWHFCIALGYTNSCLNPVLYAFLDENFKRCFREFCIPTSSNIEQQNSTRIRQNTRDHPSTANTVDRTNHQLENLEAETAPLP
D(2) dopamine receptor, sequence (P14416 whole entry): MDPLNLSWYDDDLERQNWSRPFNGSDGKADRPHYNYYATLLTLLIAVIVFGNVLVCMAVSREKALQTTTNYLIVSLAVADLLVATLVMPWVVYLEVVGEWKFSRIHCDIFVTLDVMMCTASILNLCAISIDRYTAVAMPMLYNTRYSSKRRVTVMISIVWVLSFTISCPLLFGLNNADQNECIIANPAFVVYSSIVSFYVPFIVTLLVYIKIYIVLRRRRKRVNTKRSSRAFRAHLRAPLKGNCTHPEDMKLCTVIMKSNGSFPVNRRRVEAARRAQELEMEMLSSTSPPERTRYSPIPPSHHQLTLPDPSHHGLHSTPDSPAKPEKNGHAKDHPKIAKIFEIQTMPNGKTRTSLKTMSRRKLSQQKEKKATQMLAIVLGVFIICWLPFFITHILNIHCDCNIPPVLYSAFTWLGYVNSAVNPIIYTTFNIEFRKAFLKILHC
D(1A) dopamine receptor, sequence (P21728 whole entry): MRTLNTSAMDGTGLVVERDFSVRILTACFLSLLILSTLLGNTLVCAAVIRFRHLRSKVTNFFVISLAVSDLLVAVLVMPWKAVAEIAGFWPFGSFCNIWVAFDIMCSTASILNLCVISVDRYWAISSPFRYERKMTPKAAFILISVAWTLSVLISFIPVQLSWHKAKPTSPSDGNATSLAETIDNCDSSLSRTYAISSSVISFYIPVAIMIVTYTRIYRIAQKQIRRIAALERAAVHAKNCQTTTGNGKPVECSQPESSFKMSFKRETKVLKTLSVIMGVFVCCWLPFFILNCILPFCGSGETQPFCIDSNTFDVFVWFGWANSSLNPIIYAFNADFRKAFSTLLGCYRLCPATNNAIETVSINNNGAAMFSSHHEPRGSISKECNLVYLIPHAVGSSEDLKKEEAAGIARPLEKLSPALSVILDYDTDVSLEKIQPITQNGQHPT
5-hydroxytryptamine receptor 2A, sequence (P28223 whole entry): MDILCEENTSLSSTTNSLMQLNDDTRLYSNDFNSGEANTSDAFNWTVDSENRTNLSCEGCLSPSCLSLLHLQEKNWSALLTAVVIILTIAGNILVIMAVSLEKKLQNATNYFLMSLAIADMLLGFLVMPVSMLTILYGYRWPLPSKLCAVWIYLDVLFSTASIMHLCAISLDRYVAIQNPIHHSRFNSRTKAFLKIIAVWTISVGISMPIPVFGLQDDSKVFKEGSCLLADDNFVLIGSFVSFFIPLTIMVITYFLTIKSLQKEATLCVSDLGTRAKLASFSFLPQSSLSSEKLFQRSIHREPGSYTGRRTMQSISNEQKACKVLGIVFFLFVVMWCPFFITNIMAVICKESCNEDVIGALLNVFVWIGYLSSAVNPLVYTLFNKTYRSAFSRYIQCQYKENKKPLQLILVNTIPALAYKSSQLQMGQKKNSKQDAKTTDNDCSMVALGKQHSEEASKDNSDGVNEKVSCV
5-hydroxytryptamine receptor 6, sequence (P50406 whole entry): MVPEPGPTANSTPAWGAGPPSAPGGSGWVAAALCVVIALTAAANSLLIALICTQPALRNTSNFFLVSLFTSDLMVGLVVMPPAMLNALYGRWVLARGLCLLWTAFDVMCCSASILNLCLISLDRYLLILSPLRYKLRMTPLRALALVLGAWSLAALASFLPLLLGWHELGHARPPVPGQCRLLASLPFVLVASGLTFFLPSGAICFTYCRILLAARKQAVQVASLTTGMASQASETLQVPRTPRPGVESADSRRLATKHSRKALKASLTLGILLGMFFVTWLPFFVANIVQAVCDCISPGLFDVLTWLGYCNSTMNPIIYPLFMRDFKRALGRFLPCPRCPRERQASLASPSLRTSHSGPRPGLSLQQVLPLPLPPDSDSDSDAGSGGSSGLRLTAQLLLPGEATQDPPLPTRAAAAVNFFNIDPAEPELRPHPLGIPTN
5-hydroxytryptamine receptor 1D, sequence (P28221 whole entry): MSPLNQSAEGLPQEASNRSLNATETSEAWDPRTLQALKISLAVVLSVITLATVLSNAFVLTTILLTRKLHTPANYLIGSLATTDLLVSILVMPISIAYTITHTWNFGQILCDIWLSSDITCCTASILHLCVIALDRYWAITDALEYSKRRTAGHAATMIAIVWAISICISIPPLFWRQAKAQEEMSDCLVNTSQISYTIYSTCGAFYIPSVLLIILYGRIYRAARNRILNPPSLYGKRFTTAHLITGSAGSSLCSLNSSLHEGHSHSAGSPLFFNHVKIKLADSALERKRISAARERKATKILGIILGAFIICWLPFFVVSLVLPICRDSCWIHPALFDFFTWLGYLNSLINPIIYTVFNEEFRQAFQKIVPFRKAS
Delta-type opioid receptor, sequence (P41143 whole entry): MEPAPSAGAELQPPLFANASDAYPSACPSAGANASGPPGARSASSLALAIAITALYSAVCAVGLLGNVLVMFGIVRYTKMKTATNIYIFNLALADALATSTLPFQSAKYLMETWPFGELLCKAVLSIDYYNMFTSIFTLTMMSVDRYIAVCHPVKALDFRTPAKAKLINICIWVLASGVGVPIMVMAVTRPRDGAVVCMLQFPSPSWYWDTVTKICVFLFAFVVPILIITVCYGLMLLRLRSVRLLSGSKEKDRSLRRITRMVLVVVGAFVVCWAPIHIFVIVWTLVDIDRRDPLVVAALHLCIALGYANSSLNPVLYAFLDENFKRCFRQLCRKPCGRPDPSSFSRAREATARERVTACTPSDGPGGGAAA
Muscarinic acetylcholine receptor M3, sequence (P20309 whole entry): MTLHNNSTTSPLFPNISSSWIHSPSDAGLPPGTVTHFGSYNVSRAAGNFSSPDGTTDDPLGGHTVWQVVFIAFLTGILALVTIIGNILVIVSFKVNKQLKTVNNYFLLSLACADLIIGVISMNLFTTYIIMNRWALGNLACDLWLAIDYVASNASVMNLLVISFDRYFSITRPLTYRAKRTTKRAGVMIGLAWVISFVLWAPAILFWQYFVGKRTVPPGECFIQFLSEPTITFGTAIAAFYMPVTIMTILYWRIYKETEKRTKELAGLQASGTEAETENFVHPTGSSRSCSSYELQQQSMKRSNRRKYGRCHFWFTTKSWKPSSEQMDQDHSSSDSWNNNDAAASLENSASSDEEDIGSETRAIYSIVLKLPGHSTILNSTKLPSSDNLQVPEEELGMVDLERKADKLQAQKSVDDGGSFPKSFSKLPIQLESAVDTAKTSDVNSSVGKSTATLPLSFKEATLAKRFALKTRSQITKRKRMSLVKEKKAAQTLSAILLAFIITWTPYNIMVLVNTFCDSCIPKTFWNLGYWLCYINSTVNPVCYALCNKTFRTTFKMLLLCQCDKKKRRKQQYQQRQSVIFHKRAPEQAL

On to `COc1ccc(NC(=O)N2CCN(c3ccccc3OC)CC2)cc1N1CCN(C)CC1`, for which the Ki is over 10 µM in [1]; over 10 µM in test [2]; over 10 µM in [3]; over 10 µM in test [4]; over 10 µM in test [5]; 0.106 µM in test [6]. Further, the Ki in test [7] was 6.74 µM; in [8] it was 1.94 µM; in [9], over 10 µM; in test [10], over 10 µM; in test [11], over 10 µM; in test [12], over 10 µM. The Ki in [13], in test [14], in [15], in test [16], in test [17] and in test [18] was over 10 µM each time. Besides, the Ki in test [19] is 2.41 µM; in [20] it was 1.41 µM; in [21] it was 0.0124 µM.
